Holding throughout (format): cell-based
One test has as its target T1, EGFR L858R-T790M (Homo sapiens, UniProt P00533, L858R/T790M).
T1 construct: NCI-H1975 (harboring EGFR heterozygous L858R-T790M mutations); host or cells: NCI-H1975
Kind of test: EGFR degradation, Total EGFR (L858R-specific) HTRF, NCI-H1975. The conditions noted are these: 6 hours. In outline: (§1)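 HTRF read-outs: pY1068 phospho-EGFR for IC50; total EGFR (pan-EGFR in A431, L858R-specific in mutant lines) for DC50. Compounds were titrated 11 points, half-log, from 10 μM in duplicate onto cells in 10% FBS RPMI, incubated 6 h at 37°C.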
For orientation: Time-resolved FRET reads energy transfer from a long-lived donor to a nearby acceptor.

The target in a further test is T2, EGFR L858R-T790M-C797S (Homo sapiens, UniProt P00533, C797S/L858R/T790M).
T2 construct: generated using CRISPR technology to introduce the additional C797S mutation by Horizon Discovery; host or cells: NCI-H1975+CS (CRISPR knock-in of C797S)
In words: EGFR degradation, Total EGFR (L858R-specific) HTRF, NCI-H1975+CS. The conditions noted are these: 6 hours. In outline:
as §1

The target in a further test is T3, pY1068 EGFR L858R (Homo sapiens, UniProt P00533, L858R).
T3 construct: NCI-H3255 (harboring EGFR heterozygous L858R mutation); host or cells: NCI-H3255
In words: Phospho-EGFR (pY1068) inhibition HTRF, NCI-H3255. The note with it: 6 hours, read-out: pEGFR IC50. In outline: as §1

The target of test [1] is T4, pY1068 EGFR L858R-T790M-C797S (Homo sapiens, UniProt P00533, C797S/L858R/T790M).
T4 construct: generated using CRISPR technology to introduce the additional C797S mutation by Horizon Discovery; host or cells: NCI-H1975+CS (CRISPR knock-in of C797S)
In words: Phospho-EGFR (pY1068) inhibition HTRF, NCI-H1975+CS. The note with it: 6 hours, read-out: pEGFR IC50. Put shortly: as §1

In the next test the target is T5, pY1068 EGFR WT (Homo sapiens, UniProt P00533).
T5 construct: A431 (harboring EGFR wildtype) was purchased from ATCC; host or cells: A431
In words: Phospho-EGFR (pY1068) inhibition HTRF, A431. The conditions noted are these: A431 (wild-type), 6 hours; read-out: pEGFR IC50. An excerpt: NCI-H1975 (harboring EGFR heterozygous L858R-T790M mutations) and NCI-H3255 (harboring EGFR heterozygous L858R mutation) were purchased from ATCC and NCI, respectively. NCI-H1975+CS (harboring EGFR heterozygous L858R-T790M-C797S mutations) was generated using CRISPR technology to introduce the additional C797S mutation by Horizon Discovery. A431 (harboring EGFR wildtype) was purchased from ATCC. RPMI 1640 no-phenol red medium and fetal bovine serum (FBS) were purchased from Gibco (Grand Island, NY, USA). Cell culture flasks and 384-well microplates were acquired from VWR (Radnor, PA, USA). Phosphorylated (pY1068) EGFR and Total EGFR (using L858R-specific detection antibody and pan-EGFR antibody for EGFR mutant cell lines and EGFR wild-type cell lines, respectively) HTRF assay kits were purchased from Cisbio (Bedford, MA, USA).
Degradation of EGFR protein containing L858R mutation or wild-type was determined based on quantification of FRET signal using a Total EGFR (L858R-specific or pan-EGFR detecting) HTRF assay kit. Phospho-EGFR (pEGFR) inhibition was determined based on quantification of FRET signal using a pY1068 EGFR HTRF assay kit. In separate assay plates, test compounds were added to the 384-well plate from a top concentration of 10 μM with 11 points, half log titration in duplicates. […] FRET signal was acquired on EnVision™ Multilabel Reader (PerkinElmer, Santa Clara, CA, USA). […]

The test system of test [2] is BaF3 cells expressing EGFR L858R. In words: Ba/F3 EGFR cell viability (CellTiter-Glo), L858R. The note with it: Mus musculus, read-out: CTGlo (GI50). The text has this:
(§2) RPMI 1640 media, cell culture flasks, and 384-well microplates were purchased from VWR (Radnor, PA, USA). Fetal bovine serum (FBS) was purchased from Life Technologies (Carlsbad, CA, USA) and CellTiter-Glo® was purchased from Promega (Madison, WI, USA). The Ba/F3 parental cell line was purchased from CrownBio (Santa Clara, CA). BaF3 cell lines ectopically expressing the EGFR mutations L858R, L858R-T790M, L858R-C797S, and L858R-T790M-C797S were purchased from CrownBio and EGFR mutations L858R-L718Q, L858R-T790M-L718Q, L858R-L792H, and L858R-T790M-L792H, were purchased from Signosis (Santa Clara, CA).
(§3) Cell viability was assessed based on the quantification of ATP using the CellTiter-Glo® assay (Promega, Madison, WI, USA). To determine the effect of compounds on cell viability, all Ba/F3 cell lines were plated at a cell density of 2000 cells/well in 384-well plates using RPMI 1640+10% FBS and treated with compounds of interest using a 10-point half-log dilution series in duplicate for 72 hours, with the highest dose set at […]. CellTiter-Glo® reagent was then added and luminescence signals were measured using an EnVision™ Multimode plate reader (Perkin Elmer, Santa Clara, CA). For data normalization, cells untreated with the test compounds at Time=72 hours were set to 100% (equivalent to maximal cell growth after 72 hours); cells untreated with the test compounds at Time=0 hours were set to 0% (equivalent to cytostasis); and media-only wells were set to −100% (equivalent to complete cytotoxicity). % Viability was determined by normalizing the signal with positive and DMSO treated negative controls on the same microtiter plate. The half-maximal inhibition of cell growth (GI50) is computed from where the fitted curve crosses 50% while the half-maximal lethal dose (LD50) is computed from where the fitted curve crosses −50%.

Test [3] relates to BaF3 cells expressing EGFR L858R-T790M-C797S. Kind of test: Ba/F3 EGFR cell viability (CellTiter-Glo), L858R-T790M-C797S. The note with it: Mus musculus, read-out: CTGlo (GI50).
Source text: as §2, §3
(In general: In ATP-based viability assays light output follows the ATP content of the culture.)

The test system of test [4] is BaF3 cells expressing wild-type EGFR. Kind of test: Ba/F3 EGFR cell viability (CellTiter-Glo), wild-type EGFR. The conditions noted are these: Mus musculus, Ba/F3 WT EGFR, read-out: CTGlo (GI50).
A further test deals with EGFR L858R (Homo sapiens, UniProt P00533, L858R). Kind of test: EGFR degradation, Total EGFR (L858R-specific) HTRF, NCI-H3255. The conditions noted are these: 6 hours. Set-up: NCI-H3255 (harboring EGFR heterozygous L858R mutation); host or cells: NCI-H3255. Put shortly: as §1
Setting [5] is: H1975 (L858R-T790M), read-out: tEGFR DC50.
Where [6] appears, read: Table 9A, NCI-H1975 cells, Total EGFR HTRF, read-out: H1975 EGFR DC50.
Where [7] appears, read: H1975 + CS (L858R-T790M-C797S), read-out: tEGFR DC50.
Setting [8] is: Table 9A, NCI-H1975+CS cells, Total EGFR HTRF, read-out: H1975+ CS EGFR DC50.
Where [9] appears, read: H3255 (L858R), read-out: tEGFR DC50.
Where [10] appears, read: Table 9A, NCI-H3255 cells, Total EGFR HTRF, read-out: H3255 EGFR DC50.

Read-outs that look alike come from different tables or passages of the source.

T2 sequence (P00533 25-1210 T790M/C797S/L858R): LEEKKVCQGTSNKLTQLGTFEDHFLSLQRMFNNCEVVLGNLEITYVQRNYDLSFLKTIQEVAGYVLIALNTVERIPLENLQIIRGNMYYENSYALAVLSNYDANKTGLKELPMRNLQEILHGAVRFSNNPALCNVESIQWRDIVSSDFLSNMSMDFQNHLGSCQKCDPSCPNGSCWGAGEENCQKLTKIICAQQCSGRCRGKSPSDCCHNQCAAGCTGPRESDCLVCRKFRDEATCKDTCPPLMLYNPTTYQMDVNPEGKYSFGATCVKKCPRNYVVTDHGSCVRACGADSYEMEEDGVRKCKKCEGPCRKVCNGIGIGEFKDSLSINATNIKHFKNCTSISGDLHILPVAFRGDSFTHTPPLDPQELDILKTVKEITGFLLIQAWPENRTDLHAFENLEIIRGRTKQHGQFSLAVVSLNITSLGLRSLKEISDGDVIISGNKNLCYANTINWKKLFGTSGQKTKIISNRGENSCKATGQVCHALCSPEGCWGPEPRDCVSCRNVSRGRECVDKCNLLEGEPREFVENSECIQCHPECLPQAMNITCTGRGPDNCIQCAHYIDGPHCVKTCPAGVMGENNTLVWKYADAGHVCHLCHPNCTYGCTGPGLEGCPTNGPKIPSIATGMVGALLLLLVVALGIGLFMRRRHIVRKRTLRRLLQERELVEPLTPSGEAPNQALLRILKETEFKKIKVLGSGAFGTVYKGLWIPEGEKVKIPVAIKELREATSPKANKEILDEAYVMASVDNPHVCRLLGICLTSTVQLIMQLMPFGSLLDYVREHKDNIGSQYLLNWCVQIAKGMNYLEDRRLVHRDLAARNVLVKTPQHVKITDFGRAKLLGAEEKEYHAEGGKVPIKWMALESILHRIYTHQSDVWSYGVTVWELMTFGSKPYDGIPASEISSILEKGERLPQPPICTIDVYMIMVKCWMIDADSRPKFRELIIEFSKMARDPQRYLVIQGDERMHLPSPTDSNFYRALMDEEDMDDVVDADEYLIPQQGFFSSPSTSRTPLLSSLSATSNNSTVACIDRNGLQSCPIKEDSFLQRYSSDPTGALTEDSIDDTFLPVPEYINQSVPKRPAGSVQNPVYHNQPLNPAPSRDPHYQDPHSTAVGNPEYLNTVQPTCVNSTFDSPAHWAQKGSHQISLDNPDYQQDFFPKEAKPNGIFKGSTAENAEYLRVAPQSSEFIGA
Chain of EGFR L858R (P00533 25-1210 L858R): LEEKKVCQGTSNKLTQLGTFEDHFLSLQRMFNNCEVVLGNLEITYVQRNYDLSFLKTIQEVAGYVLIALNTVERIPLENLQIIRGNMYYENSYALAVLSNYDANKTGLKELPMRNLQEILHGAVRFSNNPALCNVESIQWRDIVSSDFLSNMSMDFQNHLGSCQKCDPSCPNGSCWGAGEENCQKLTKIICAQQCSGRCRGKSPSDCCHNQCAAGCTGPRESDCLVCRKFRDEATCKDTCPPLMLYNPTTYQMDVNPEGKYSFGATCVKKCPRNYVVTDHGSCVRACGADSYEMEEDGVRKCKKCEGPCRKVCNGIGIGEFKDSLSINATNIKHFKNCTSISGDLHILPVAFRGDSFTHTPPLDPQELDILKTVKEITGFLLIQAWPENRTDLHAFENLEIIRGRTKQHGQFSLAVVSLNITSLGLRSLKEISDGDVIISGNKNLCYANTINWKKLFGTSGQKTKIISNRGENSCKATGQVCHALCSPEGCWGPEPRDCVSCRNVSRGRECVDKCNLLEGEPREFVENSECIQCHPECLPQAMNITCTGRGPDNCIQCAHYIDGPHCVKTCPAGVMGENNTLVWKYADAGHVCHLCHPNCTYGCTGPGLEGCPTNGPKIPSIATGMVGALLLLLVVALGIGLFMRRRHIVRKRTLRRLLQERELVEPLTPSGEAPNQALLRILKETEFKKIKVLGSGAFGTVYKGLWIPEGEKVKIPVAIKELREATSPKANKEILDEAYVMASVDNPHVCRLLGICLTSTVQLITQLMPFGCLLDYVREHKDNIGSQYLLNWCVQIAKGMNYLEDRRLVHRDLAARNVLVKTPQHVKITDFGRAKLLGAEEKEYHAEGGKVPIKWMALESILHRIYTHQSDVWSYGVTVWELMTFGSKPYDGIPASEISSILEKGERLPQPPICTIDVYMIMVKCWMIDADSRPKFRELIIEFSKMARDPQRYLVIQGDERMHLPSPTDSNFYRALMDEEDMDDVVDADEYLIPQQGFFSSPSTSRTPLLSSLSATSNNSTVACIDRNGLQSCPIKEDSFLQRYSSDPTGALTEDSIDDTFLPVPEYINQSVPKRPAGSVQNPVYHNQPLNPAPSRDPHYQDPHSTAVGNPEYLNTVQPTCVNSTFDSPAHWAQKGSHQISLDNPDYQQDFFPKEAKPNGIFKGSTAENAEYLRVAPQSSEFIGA
T1 sequence (P00533 25-1210 T790M/L858R): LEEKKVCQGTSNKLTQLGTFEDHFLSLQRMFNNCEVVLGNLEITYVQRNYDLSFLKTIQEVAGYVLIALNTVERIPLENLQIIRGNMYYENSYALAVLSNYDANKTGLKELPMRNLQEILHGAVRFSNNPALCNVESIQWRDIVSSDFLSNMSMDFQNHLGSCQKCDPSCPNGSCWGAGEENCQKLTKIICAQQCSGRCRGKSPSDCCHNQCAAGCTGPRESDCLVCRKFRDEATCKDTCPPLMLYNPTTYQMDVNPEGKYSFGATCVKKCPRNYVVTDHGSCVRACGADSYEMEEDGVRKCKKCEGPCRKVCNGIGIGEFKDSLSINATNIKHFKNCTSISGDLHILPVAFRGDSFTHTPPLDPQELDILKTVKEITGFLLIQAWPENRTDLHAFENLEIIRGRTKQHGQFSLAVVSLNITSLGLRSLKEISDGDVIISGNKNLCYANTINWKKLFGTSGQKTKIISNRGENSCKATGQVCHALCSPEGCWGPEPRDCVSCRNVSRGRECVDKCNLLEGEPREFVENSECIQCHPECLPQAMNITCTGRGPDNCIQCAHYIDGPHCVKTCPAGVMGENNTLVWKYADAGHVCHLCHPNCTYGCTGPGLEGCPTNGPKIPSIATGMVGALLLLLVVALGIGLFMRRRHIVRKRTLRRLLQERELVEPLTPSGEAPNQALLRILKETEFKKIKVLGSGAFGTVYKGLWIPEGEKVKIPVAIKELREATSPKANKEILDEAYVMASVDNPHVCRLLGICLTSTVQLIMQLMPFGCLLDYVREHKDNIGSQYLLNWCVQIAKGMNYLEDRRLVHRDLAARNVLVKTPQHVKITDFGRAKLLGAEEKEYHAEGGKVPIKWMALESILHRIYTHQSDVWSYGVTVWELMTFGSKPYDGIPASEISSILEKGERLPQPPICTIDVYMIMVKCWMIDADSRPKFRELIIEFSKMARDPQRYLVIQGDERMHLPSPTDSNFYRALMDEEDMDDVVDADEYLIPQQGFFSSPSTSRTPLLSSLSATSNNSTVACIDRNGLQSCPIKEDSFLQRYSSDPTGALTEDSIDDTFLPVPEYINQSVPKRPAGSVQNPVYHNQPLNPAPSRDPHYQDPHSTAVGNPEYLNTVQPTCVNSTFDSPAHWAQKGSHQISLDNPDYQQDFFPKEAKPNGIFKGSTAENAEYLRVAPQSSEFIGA
T4 sequence (P00533 25-1210 T790M/C797S/L858R): as the sequence (P00533 25-1210 T790M/C797S/L858R) above

Broadly, the DC50 is the concentration giving 50% degradation. Broadly, the IC50 is the concentration at which inhibition is half-maximal. A word on the GI50: it is the concentration at which growth is held to half of that of the control. For the compound `O=C1CC[C@H](Nc2ccc(N3CCC(O)(CC(=O)N4CC5(C4)CN(c4ccc(-c6cc(F)c7c(c6)C(=O)N(C(C(=O)Nc6nccs6)c6ncn8c6CCC8)C7)cc4)C5)CC3)c(F)c2)C(=O)N1` (stereo partly drawn) [Compound 1, 2-(6,7-dihydro-5H-pyrrolo[1,2-c]imidazol-1-yl)-2-[6-[4-[2-[2-[1-[4-[[(3S)-2,6-dioxo-3-piperidyl]amino]-2-fluoro-phenyl]-4-hydroxy-4-piperidyl]acetyl]-2,6-diazaspiro[3.3]heptan-6-yl]phenyl]-4-fluoro-1-oxo-isoindolin-2-yl]-N-thiazol-2-yl-acetamide], the DC50 on EGFR L858R-T790M (setting [5]) is 8 nM; at EGFR L858R-T790M (setting [6]), < 50 nM; at EGFR L858R-T790M-C797S (setting [7]), 12 nM; on EGFR L858R-T790M-C797S (setting [8]), < 50 nM; on EGFR L858R (setting [9]), 5 nM; at EGFR L858R (setting [10]), < 50 nM. Besides, the IC50 was 5 nM on pY1068 EGFR L858R, 10 nM in test [1] and > 10000 nM at pY1068 EGFR WT. Moreover, the values for the GI50 in [2], in test [3] and in test [4] were 12 nM, 7 nM and 1620 nM, respectively.

As to `Cn1nc(N2CCC(=O)NC2=O)c2ccc([C@H]3CCN(CC(=O)N4CC5(C4)CN(c4ccc(-c6cc(F)c7c(c6)C(=O)N(C(C(=O)Nc6nccs6)c6ncn8c6CCC8)C7)cc4)C5)CC3(F)F)cc21` (stereo partly drawn) [Compound 2, 2-(6,7-dihydro-5H-pyrrolo[1,2-c]imidazol-1-yl)-2-[6-[4-[2-[2-[(4R)-4-[3-(2,4-dioxohexahydropyrimidin-1-yl)-1-methyl-indazol-6-yl]-3,3-difluoro-1-piperidyl]acetyl]-2,6-diazaspiro[3.3]heptan-6-yl]phenyl]-4-fluoro-1-oxo-isoindolin-2-yl]-N-thiazol-2-yl-acetamide], the DC50 at EGFR L858R-T790M (setting [5]) is 12 nM; on EGFR L858R-T790M (setting [6]) it was < 50 nM; at EGFR L858R-T790M-C797S (setting [7]), 19 nM; on EGFR L858R-T790M-C797S (setting [8]), < 50 nM; on EGFR L858R (setting [9]), 6 nM; at EGFR L858R (setting [10]) it was < 50 nM. The IC50 was 8 nM on pY1068 EGFR L858R, 29 nM in [1] and > 10000 nM at pY1068 EGFR WT. Besides, the GI50 was determined as 3 nM in [2], 5 nM in test [3] and 310 nM in test [4].

The values above are taken from patent publication US20240158418A1 (C4 Therapeutics, Inc., priority 2021, published 2024).
